Reference: patent US12686687B2, “Compounds and uses thereof” (Foghorn Therapeutics Inc., priority 2019, dated 2026)
“Also recorded” adds a separate entry of the source.

How the values were obtained:
Assay type in all cases: cell-based, human
[1] = test system: synovial sarcoma cell lines (SYO1, HS-SY-II, and ASKA); assay: Growth of synovial sarcoma cell lines, daily treatment, crystal violet at day 14; conditions: treated daily, day 14 (FIG. 8)
Protocol: (§1) Procedure: Cells were seeded into 6-well or 12-well plates and were treated daily with a BRD9 degrader (Compound 1), a bromo-domain BRD9 binder (Compound 2), E3 ligase binder (lenalidomide), DMSO, or staurosporin (positive control for cell killing), at indicated concentrations. The number of cells was optimized for each cell line. Growth media was refreshed every 5 days. By day 14, medium was removed, cells were washed with PBS, and stained using 500 μL of 0.005% (w/v) crystal violet solution in 25% (v/v) methanol for at least 1 hour at room temperature.

[2] = test system: synovial sarcoma cell lines (SYO1, Yamato, HS-SY-II, and ASKA); assay: Growth of synovial sarcoma cell lines (IncuCyte confluency, crystal violet staining, colony imaging); conditions: 1 μM or indicated concentrations (FIGS. 5-7)
Protocol: (§2) Cells were treated with DMSO or the BRD9 degrader, Compound 1, at indicated concentrations, and proliferation was monitored from day 7 to day 14 by measuring confluency over time using an IncuCyte live cell analysis system (FIG. 5). Growth medium and compounds were refreshed every 3-4 days.
(§3) Cells were seeded into 12-well plates and treated with DMSO, 1 μM BRD9 inhibitor, Compound 2 (also known as BI-7273, see Martin et al, J Med Chem. 59(10):4462-4475 (2016); see structure of compound 2 below), or 1 μM BRD9 degrader, Compound 1.
(§4) The number of cells was optimized for each cell line. Growth medium and compounds were refreshed every 3-5 days. SYO1, Yamato, A549, 293T and HS-SY-II cells were fixed and stained at day 11. ASKA cells were fixed and stained at day 23. Staining was done by incubation with crystal violet solution (0.5 g Crystal Violet, 27 ml 37% Formaldehyde, 100 mL 10×PBS, 10 mL Methanol, 863 dH2O to 1 L) for 30 minutes followed by 3× washes with water and drying the plates for at least 24h at room temperature. Subsequently plates were scanned on an Odyssey CLx Imaging system (FIG. 6).
(§5) Cells were seeded into 96-well ultra low cluster plate (Costar, #7007) in 200 μL complete media and treated at day 2 with DMSO, Staurosporin, or BRD9 degrader, Compound 1, at indicated doses (FIG. 7).

[3] = test system: SYO1 cells; assay: Cell cycle analysis (Click-iT Plus EdU flow cytometry) in SYO1 cells; conditions: SYO1, 200 nM or 1 μM, 8 or 13 days, compared to DMSO and lenalidomide
Protocol: (§6) Procedure: SYO1 cells were treated for 8 or 13 days with DMSO, a BRD9 degrader (Compound 1) at 200 nM or 1 μM, or an E3 ligase binder (lenalidomide) at 200 nM. Compounds were refreshed every 5 days. Cell cycle analysis was performed using the Click-iT™ Plus EdU Flow Cytometry Assay (Invitrogen). The apoptosis assay was performed using the Annexin V-FITC Apoptosis Detection Kit (Sigma A9210).

[4] = test system: non-synovial control cancer cell lines (293T, A549, G401); assay: Growth of non-synovial control cancer cell lines (crystal violet staining, colony imaging); conditions: 1 μM or indicated doses (FIGS. 5-7)
Protocol: as §2, §3, §4, §5

[5] = test system: non-synovial control cancer cell lines (RD, HCT116, and Calu6); assay: Growth of non-synovial control cancer cell lines, daily treatment, crystal violet at day 14; conditions: treated daily, day 14 (FIG. 9)
Protocol: as §1

[6] = test system: SYO1 cells; assay: Apoptosis assay (Annexin V-FITC) in SYO1 cells; conditions: SYO1, 200 nM or 1 μM, 8 days, compared to DMSO controls
Protocol: as §6

SMILES	inhibition of cell growth [1]	inhibition of cell growth [2]	cells in the S-phase of the cell cycle [3]	inhibition of cell growth [4]	inhibition of cell growth [5]	early- and late-apoptotic cells [6]
COc1cc(-c2cn(C)c(=O)c3cnccc23)cc(OC)c1CN(C)CC(=O)NCCOCCOCCNc1cccc2c1C(=O)N(C1CCC(=O)NC1=O)C2=O (stereo not shown) [Compound 1]	inhibition of the growth of the cells; also recorded: most significant growth inhibition	inhibition of the growth of the cells	reduced numbers of cells in the S-phase	does not result in inhibition of the growth	did not result in inhibition of the growth	increased numbers of early- and late-apoptotic cells
COc1cc(-c2cn(C)c(=O)c3cnccc23)cc(OC)c1CN(C)C [Compound 2]	inhibition of the growth of the cells	inhibition of the growth of the cells		does not result in inhibition of the growth	did not result in inhibition of the growth	
